Source: ChEMBL document CHEMBL2146374, “Fused heterocyclic compounds as ion channel modulators: patent highlight” (ACS Med Chem Lett, 2012)

Target: Nav1.5 (sodium channel protein type 5 subunit alpha) (Homo sapiens, UniProt Q14524)
Assay: Inhibition of human Nav1.5 expressed in HEK293 cells at 1 uM by whole cell patch clamp assay
Assay type: cell-based
Conditions: HEK293 cells that express human Nav1.5

Nav1.5 (sodium channel protein type 5 subunit alpha), sequence (Q14524 whole entry): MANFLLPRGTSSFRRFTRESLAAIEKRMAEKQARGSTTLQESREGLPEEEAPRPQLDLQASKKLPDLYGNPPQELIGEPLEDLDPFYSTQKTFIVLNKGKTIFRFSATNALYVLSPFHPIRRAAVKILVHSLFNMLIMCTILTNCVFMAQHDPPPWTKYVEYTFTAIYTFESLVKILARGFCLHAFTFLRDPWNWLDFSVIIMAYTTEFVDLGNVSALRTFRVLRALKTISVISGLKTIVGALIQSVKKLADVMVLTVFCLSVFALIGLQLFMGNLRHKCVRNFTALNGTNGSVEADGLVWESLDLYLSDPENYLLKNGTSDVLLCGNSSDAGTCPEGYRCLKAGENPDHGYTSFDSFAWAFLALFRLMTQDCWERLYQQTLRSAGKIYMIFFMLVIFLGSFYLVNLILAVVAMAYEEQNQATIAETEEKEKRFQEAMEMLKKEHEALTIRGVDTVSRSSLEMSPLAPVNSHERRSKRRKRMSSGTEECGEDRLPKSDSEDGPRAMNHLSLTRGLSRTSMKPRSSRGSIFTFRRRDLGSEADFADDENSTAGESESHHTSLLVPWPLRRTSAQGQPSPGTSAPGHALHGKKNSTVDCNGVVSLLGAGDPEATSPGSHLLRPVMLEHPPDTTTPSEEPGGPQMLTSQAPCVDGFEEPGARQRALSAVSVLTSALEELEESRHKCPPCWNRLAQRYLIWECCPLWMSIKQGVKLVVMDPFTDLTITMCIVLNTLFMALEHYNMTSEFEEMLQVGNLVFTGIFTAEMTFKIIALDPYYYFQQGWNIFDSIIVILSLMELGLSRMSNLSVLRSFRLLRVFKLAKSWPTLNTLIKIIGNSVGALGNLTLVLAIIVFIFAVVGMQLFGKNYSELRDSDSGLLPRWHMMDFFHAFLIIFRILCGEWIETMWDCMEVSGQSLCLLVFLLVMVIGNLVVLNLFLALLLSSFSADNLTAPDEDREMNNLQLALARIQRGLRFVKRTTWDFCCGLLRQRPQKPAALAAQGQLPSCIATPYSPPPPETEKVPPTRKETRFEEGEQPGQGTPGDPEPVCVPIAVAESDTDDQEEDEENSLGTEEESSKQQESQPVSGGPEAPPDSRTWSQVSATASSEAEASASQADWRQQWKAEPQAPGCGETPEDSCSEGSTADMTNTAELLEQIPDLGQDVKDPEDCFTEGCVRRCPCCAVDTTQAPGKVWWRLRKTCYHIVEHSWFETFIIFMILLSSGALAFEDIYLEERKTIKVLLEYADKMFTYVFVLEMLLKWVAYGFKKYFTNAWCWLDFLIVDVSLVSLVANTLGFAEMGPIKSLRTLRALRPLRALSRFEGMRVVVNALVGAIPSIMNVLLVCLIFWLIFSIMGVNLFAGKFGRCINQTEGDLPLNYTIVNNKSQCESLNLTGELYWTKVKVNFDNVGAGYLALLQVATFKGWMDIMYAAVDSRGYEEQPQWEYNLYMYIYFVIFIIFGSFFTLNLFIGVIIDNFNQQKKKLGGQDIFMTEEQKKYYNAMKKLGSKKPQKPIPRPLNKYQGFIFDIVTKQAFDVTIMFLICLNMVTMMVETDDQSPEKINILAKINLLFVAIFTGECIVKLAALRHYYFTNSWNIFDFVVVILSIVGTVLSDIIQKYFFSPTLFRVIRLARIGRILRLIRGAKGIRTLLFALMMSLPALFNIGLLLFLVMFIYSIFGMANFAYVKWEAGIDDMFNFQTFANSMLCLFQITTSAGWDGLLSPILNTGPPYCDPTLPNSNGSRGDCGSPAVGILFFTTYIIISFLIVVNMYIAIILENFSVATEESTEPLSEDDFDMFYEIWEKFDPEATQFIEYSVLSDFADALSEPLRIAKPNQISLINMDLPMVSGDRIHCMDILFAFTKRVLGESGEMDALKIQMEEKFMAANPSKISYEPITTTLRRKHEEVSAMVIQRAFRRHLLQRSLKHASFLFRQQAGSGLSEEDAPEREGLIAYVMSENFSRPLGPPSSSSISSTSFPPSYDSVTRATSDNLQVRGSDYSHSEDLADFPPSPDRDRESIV

| SMILES | inhibition at 1 µM [%] |
| --- | --- |
| COc1ccccc1OCC(Cn1nc2ccc(-c3ccc(OC(F)(F)F)cc3)cn2c1=O)OC (centres undefined) | 55 |
| Cc1nc(Cn2nc3ccc(-c4ccc(Oc5ccc(Cl)cc5)cc4)cn3c2=O)no1 | 68.4 |
| Cc1noc(Cn2nc3ccc(-c4ccc(Oc5ccc(Cl)cc5)cc4)cn3c2=O)n1 | 55.8 |
| Cc1noc(Cn2nc3ccc(-c4ccc(Oc5ccc(F)cc5)cc4)cn3c2=O)n1 | 71.2 |
